Measurements from PMC8703317, “2-(Piperidin-4-yl)acetamides as Potent Inhibitors of Soluble Epoxide Hydrolase with Anti-Inflammatory Activity” (Pharmaceuticals, 2021).

Tests used:
[1] = microsomal stability, mouse microsomes; format: in vitro ADME; conditions: pooled murine microsomes, pH 7.4; 60 min incubation with mouse microsomes, NADPH, 37 °C
Procedure: (§1) The human and murine pooled microsomes employed were purchased from Tebu-Xenotech (Barcelona, Spain). The compound was incubated at 37 °C with the microsomes in a 50 mM phosphate buffer (pH = 7.4) containing 3 mM MgCl2, 1 mM NADP, 10 mM glucose-6-phosphate and 1 U/mL glucose-6-phosphate-dehydrogenase. Samples (75 µL) were taken from each well at 0, 10, 20, 40 and 60 min and transferred to a plate containing 4 °C 75 µL acetonitrile and 30 µL of 0.5% formic acid in water were added for improving the chromatographic conditions. The plate was centrifuged (46000 g, 30 min) and supernatants were taken and analyzed in a UPLC-MS/MS (Xevo-TQD, Waters) by employing a BEH C18 column and an isocratic gradient of 0.1% formic acid in water: 0.1% formic acid acetonitrile (60:40). The metabolic stability of the compounds was calculated from the logarithm of the remaining compounds at each of the time points studied.

murine sEH = target: T1, murine sEH (Mus musculus, UniProt P34914); assay: fluorescent-based sEH inhibition assay, recombinant mouse sEH; format: biochemical; conditions: baculovirus expressed recombinant mouse sEH, average of three replicates
T1 construct: made in house; host or cells: baculovirus expression system (insect cells implied)
T1 sequence (P34914 1-554): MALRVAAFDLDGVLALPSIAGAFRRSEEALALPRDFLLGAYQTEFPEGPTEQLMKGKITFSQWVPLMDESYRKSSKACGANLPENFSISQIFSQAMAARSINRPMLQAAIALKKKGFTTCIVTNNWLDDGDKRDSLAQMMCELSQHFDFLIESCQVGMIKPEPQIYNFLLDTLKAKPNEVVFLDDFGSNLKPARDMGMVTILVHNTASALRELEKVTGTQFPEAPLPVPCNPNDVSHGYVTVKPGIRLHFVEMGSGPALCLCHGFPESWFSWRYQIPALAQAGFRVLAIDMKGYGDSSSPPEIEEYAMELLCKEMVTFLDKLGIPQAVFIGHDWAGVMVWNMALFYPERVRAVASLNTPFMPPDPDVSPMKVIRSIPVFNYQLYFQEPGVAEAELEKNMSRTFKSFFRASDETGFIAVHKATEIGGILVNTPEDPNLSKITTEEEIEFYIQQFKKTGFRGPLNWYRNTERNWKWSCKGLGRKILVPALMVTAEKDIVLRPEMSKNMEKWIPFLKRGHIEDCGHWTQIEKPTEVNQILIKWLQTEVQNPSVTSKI
Procedure: The potency of all the new compounds as inhibitors of the human and murine sEH was tested using a previously reported sensitive fluorescent-based assay using baculovirus expressed recombinant human and mouse sEH [28].

[2] = microsomal stability, human microsomes; format: in vitro ADME; conditions: pooled human microsomes, pH 7.4; 60 min incubation with human microsomes, NADPH, 37 °C
Procedure: as §1

[3] = test system: microglial BV2 cells activated with LPS; assay: nitric oxide generation (nitrite, Griess) in LPS-activated BV2 microglial cells; format: cell-based; conditions: LPS 0.1 or 1 μg/mL, 24 h
Procedure: Inflammatory changes were determined by the measure of nitric oxide generation, as the endpoint of iNOS activation, in microglial BV2 cells. BV2 cells (HyperCLDB, Banca Biologica e Cell Factory, ICLC ATL 03001) were grown in RPMI 1640 medium, supplemented with L-glutamine 2 mM, gentamycin 50 µM and 10% FBS. For experiments, cells were seeded in 96-well plates at 2 × 10^5 cells/mL, 100 µL/well. […] After 1 h of incubation, the cells were treated with the pro-inflammatory chemical LPS (0.1 μg/mL or 1 μg/mL; strain E. coli […], Sigma-Aldrich, L-2654, batch #120M4028) and further incubated for 24 h. TPPU at 100 µM was also assayed as a reference anti-inflammatory compound. DMSO 0.1% was used as vehicle. Cells were maintained at 37 °C in a humidified incubator with 5% CO2 throughout the procedures. Nitric oxide released to the culture medium was measured by the colorimetric Griess reaction that detects nitrite (NO2^–), a stable reaction product of nitric oxide and molecular oxygen. Briefly, 50 µL of conditioned medium were incubated with 50 µL of Griess reagent for 10 min at room temperature. Optical density was measured at 540 nm. Nitrite concentration was determined from a sodium nitrite standard curve. Results were normalized by cell protein content in the well and expressed as a percentage of the average maximal values given by the pro-inflammatory agent (LPS 1 µg/mL). Each treatment was performed in 3–5 wells and the whole experiment was repeated 3–4 times in cultures of different cell passage. Data were analyzed by ANOVA followed by Tukey’s multiple comparisons test.

[4] = test system: SH-SY5Y neuroblastoma cells; assay: cytotoxicity by propidium iodide staining in SH-SY5Y cells; format: cell-based; conditions: 24 h incubation, up to 100 µM (highest concentration tested), vehicle DMSO 0.1%, n = 10–12
Procedure: Cytotoxicity was evaluated in the human neuroblastoma SH-SY5Y cell line (ATCC Number: CRL-2266). Cells were cultured in minimum essential medium/HAM’s-F12 (1:1, v/v) medium, supplemented with non-essential amino acids, L-glutamine 1 mM, gentamycin 50 µM and 10% heat inactivated fetal bovine serum (FBS). For experiments, the cells were seeded at 3 × 10^5 cells/mL (100 µL/well) in 96-well plates. […] DMSO 0.1% was used as vehicle. Treated cultures were returned to the incubator for a 24 h test exposure. One hour before termination, cell death was measured by PI staining. Briefly, PI (Molecular Probes) at the final concentration of 7.5 µg/mL was added to the cells and incubated for 1 h. PI enters into cells with damaged membrane and binds to DNA yielding intense red fluorescence. Fluorescence was measured in a SAFAS FLX-Xenius microplate reader (Monaco) at 530 nm excitation and 645 nm emission. Percentage of cell death for a given fluorescence value (Ft) was calculated according to the values given by Triton X100 killed cells (Fmax; 100% cell death) and vehicle treated cells (Fmin; 0% cell death) [% = ((Ft-Fmin)/(Fmax-Fmin)) × 100]. Each treatment was assayed in 3–4 wells per experiment and the experiment was repeated 3 times in cultures of different cell passages. Data were analyzed by ANOVA.

SMILES: O=C(CC1CCN(c2ccc(C(=O)O)cc2)CC1)NC12CC3CC(F)(CC(C1)c1ccccc13)C2 [10c, 4-(4-(2-((9-Fluoro-5,6,8,9,10,11-hexahydro-7H-5,9:7,11-dimethanobenzo[9]annulen-7-yl)amino)-2-oxoethyl)piperidin-1-yl)benzoic Acid]
- remaining at 1 h [1]: 29%
- IC50 (murine sEH): 0.7 nM
- remaining at 1 h [2]: 60%
- nitric oxide generation (nitrite levels) in presence of LPS ([3]; compound at 50 µM): indistinguishable from control levels
- nitric oxide generation (nitrite levels) in presence of LPS ([3]; compound at 100 µM): indistinguishable from control levels
- cytotoxicity, percentage of cell death (PI staining) [4]: no cytotoxicity
